# Earlier results as cited in publication PMC8764166, “Phenolic-Rich Plant Extracts With Antimicrobial Activity: An Alternative to Food Preservatives and Biocides?” (Frontiers in Microbiology, 2022).
# Where two headings read alike, the source gives them in different places.
# Key:
# [1] = tested on: biofilms with undesirable food spoiling or foodborne pathogenic microorganisms; design: method as in the references listed per substance; settings: the references listed per substance
# [2] = tested on: Bacillus cereus; settings: for MIC against Bacillus cereus: ref Skroza et al., 2019
# [3] = tested on: Salmonella Infantis; design: method as in Skroza et al., 2019; settings: ref Skroza et al., 2019
# [4] = tested on: Salmonella typhimurium
# [5] = tested on: Staphylococcus aureus
# [6] = tested on: Escherichia coli; settings: for MIC against Escherichia coli: E. coli O157:H7 ATCC 43890, 2.5 10^6 cfu·ml^−1, Mueller Hinton broth, ref Pacheco-Ordaz et al., 2017
# [7] = tested on: S. aureus; settings: up to 20% (w/w) proteins, 37°C, 15°C or 6°C; ref Bouarab-Chibane et al. (2018b)
# [8] = tested on: Pseudomonas aeruginosa; settings: 2020
# [9] = tested on: Enterococcus faecalis; settings: for MIC against Enterococcus faecalis: ref Adamczak et al., 2020; for MIC against E. faecalis: ref del Valle et al., 2016
# [10] = tested on: L. monocytogenes; design: method as in Pernin et al., 2019; settings: ref Pernin et al., 2019
# [11] = tested on: Salmonella enterica serovar Typhimurium; settings: ref Alvarado-Martinez et al., 2020
# [12] = tested on: S. aureus; design: method as in Stojkovic et al., 2013; settings: chicken soup, 4°C, within 3 days; ref Stojkovic et al., 2013
# [13] = tested on: Bacillus subtilis; design: method as in Duggirala et al., 2014; settings: ref Duggirala et al., 2014
# [14] = ŽMJ 129 (clinical isolate), 10^5–10^6 cfu·ml^−1, Mueller Hinton broth, 24 h 37°C, ref Skroza et al., 2019
structure (smiles),measurement,setting,value
CC(C)(C)c1ccc(O)c(O)c1 [4-tert-butylcatechol],activity against biofilms,[1],inhibit formation or to eradicate biofilms
COc1cc(C(=O)O)cc(OC)c1O [Syringic acid],MIC against Bacillus cereus,[2],250 µg/mL
same,MIC against Salmonella Infantis,[3],250 µg/mL
same,MIC against S. typhimurium,"[4]; ref Phadungkit and Luanratana, 2006",S. typhimurium 0.0625 g·L^−1
same,MIC against S. aureus,"[5]; ref Skroza et al., 2019",500 µg/mL
same,MIC against E. coli,[6]; [14],250 µg/mL
Cc1ccc(O)c(O)c1 [4-methylcatechol],activity against biofilms,[1],inhibit formation or to eradicate biofilms
CN(C)c1ccc2nc3c(C(=O)O)cc(=O)c(O)c-3oc2c1 [gallocyanin],antibacterial activity in the presence of bovine meat proteins,[7],"kept its bactericidal activity at 37 °C up to a 5% (w/w) protein content in the medium, but not at 15 °C or 6 °C"
"C[C@@H]1O[C@@H](O[C@@H]2[C@@H](O)[C@H](O)[C@@H](CO)O[C@H]2c2c(O)cc(O)c3c(=O)cc(-c4ccc(O)cc4)oc23)[C@H](O)[C@H](O)[C@H]1O [vitexin 2""-o-rhamnoside]",MIC against P. aeruginosa,[8]; ref Adamczak et al.,500 µg/mL
same,MIC against E. coli,"[6]; ref Adamczak et al., 2020",500 µg/mL
same,MIC against Enterococcus faecalis,[9],1000 µg/mL
Oc1cc(O)c2c(c1)O[C@H](c1ccc(O)c(O)c1)[C@H](O)C2 [Epicatechin],MIC against Bacillus cereus,[2],360 µg/mL
same,MIC against Salmonella Infantis,[3],720 µg/mL
same,MIC against S. aureus,"[5]; ref Skroza et al., 2019",720 µg/mL
same,MIC against E. coli,[6]; [14],720 µg/mL
O=c1c(O)c(-c2cc(O)c(O)c(O)c2)oc2cc(O)cc(O)c12 [myricetin],activity against biofilms,[1],inhibit formation or to eradicate biofilms
Oc1cccc(O)c1O [pyrogallol],activity against biofilms,[1],inhibit formation or to eradicate biofilms
O=c1cc(-c2ccccc2)oc2ccccc12 [Flavone],MIC against P. aeruginosa,[8]; ref Adamczak et al.,E. faecalis 0.5 g·L^−1 E. coli 0.5 g·L^−1 P. aeruginosa 0.5 g·L^−1
same,MIC against E. coli,"[6]; ref Adamczak et al., 2020",E. faecalis 0.5 g·L^−1 E. coli 0.5 g·L^−1 P. aeruginosa 0.5 g·L^−1
same,MIC against Enterococcus faecalis,[9],E. faecalis 0.5 g·L^−1 E. coli 0.5 g·L^−1 P. aeruginosa 0.5 g·L^−1
O=c1cc(-c2ccc(O)c(O)c2)oc2cc(O)cc(O)c12 [Luteolin],MIC against Bacillus cereus,[2],90 µg/mL
same,MIC against P. aeruginosa,[8]; ref Adamczak et al.,500 µg/mL
same,MIC against S. aureus,"[5]; ref Adamczak et al., 2020",500 µg/mL
same,MIC against S. aureus,"[5]; ref Skroza et al., 2019",45 µg/mL
same,MIC against Enterococcus faecalis,[9],1000 µg/mL
O=c1cc(-c2ccc(O)c(O)c2)oc2cc(O)c([C@@H]3O[C@H](CO)[C@@H](O)[C@H](O)[C@H]3O)c(O)c12 [isoorientin],MIC against P. aeruginosa,[8]; ref Adamczak et al.,500 µg/mL
same,MIC against S. aureus,"[5]; ref Adamczak et al., 2020",500 µg/mL
same,MIC against E. coli,"[6]; ref Adamczak et al., 2020",500 µg/mL
same,MIC against Enterococcus faecalis,[9],1000 µg/mL
O=c1c(O)c(-c2ccc(O)cc2)oc2cc(O)cc(O)c12 [Kaempferol],MIC against Bacillus cereus,[2],90 µg/mL
same,MIC against Salmonella Infantis,[3],360 µg/mL
same,MIC against S. aureus,"[5]; ref Skroza et al., 2019",90 µg/mL
same,MIC against E. coli,"[6]; ref Adamczak et al., 2020",E. coli 0.5 g·L^−1
same,MIC against E. coli,[6]; [14],360 µg/mL
same,MIC against E. faecalis,[9],E. faecalis 0.1 g·L^−1
O=C(O)/C=C/c1ccccc1 [cinnamic acid],activity against biofilms,[1],inhibit formation or to eradicate biofilms
O=C(O)c1ccc(O)c(O)c1 [Proto-catechuic acid],MIC against Bacillus cereus,[2],190 µg/mL
same,MIC against Salmonella Infantis,[3],380 µg/mL
same,mechanism of action against L. monocytogenes,[10],penetration or accumulation in the bacterial membrane of undissociated form
same,MIC against S. aureus,"[5]; ref Skroza et al., 2019",380 µg/mL
same,cell morphology,[11],morphological defects at the polar ends of bacteria
same,expression of virulence genes (SPI-1),[11],downregulation of key regulatory genes
same,membrane permeabilization,[11],membrane permeabilization
same,MIC against Escherichia coli,[6]; 24 h 37°C,"E. coli, 3.1 g·L^−1"
same,MIC against E. coli,[6]; [14],380 µg/mL
Oc1ccc(/C=C/c2cc(O)cc(O)c2)cc1 [Resveratrol],MIC against Bacillus cereus,[2],70 µg/mL
same,MIC against Salmonella Infantis,[3],140 µg/mL
same,MIC against S. aureus,"[5]; ref Skroza et al., 2019",70 µg/mL
same,MIC against E. coli,[6]; [14],140 µg/mL
same,MIC against E. faecalis,[9],E. faecalis 0.12 g·L^−1
same,antibacterial activity in the presence of bovine meat proteins,[7],always lost their bacteriostatic activity
O=c1c(O)c(-c2ccc(O)cc2O)oc2cc(O)cc(O)c12 [morin],activity against biofilms,[1],inhibit formation or to eradicate biofilms
O=c1cc(-c2ccccc2)oc2cc(O)cc(O)c12 [Chrysin],MIC against P. aeruginosa,[8]; ref Adamczak et al.,500 µg/mL
same,MIC against S. aureus,"[5]; ref Adamczak et al., 2020",500 µg/mL
same,MIC against E. coli,"[6]; ref Adamczak et al., 2020",500 µg/mL
same,MIC against Enterococcus faecalis,[9],1000 µg/mL
same,antibacterial activity in the presence of bovine meat proteins,[7],always lost their bacteriostatic activity
CC(C)=CCc1c(O)ccc2c1O[C@H]1c3ccc(O)cc3OC[C@@H]21 [Phaseollidin],MIC against B. cereus,"[2]; ref Sadgrove et al., 2020",10 µg/mL
same,MIC against P. aeruginosa,[8]; ref Sadgrove et al.,20 µg/mL
same,MIC against S. aureus,"[5]; ref Sadgrove et al., 2020",10 µg/mL
same,MIC against E. coli,"[6]; ref Sadgrove et al., 2020",20 µg/mL
O=C1C=CC(=O)c2c(O)ccc(O)c21 [naphthazarin],antibacterial activity in the presence of bovine meat proteins,[7],"bactericidal at 6 °C and 15°C, unlike at 37 °C"
O=C(O)c1ccc(O)cc1 [p-hydroxybenzoic acid],mechanism of action against L. monocytogenes,[10],penetration or accumulation in the bacterial membrane of undissociated form
C[C@@H]1O[C@@H](O[C@H]2[C@H](Oc3cc(O)c4c(c3)O[C@H](c3ccc(O)cc3)CC4=O)O[C@H](CO)[C@@H](O)[C@@H]2O)[C@H](O)[C@H](O)[C@H]1O [Naringin],MIC against P. aeruginosa,[8]; ref Adamczak et al.,500 µg/mL
same,MIC against E. coli,"[6]; ref Adamczak et al., 2020",500 µg/mL
same,MIC against Enterococcus faecalis,[9],1000 µg/mL
COc1cc(C(=O)O)ccc1O [Vanillic acid],MIC against Bacillus cereus,[2],100 µg/mL
same,MIC against Salmonella Infantis,[3],210 µg/mL
same,MIC against Salmonella typhimurium,"[4]; ref Pacheco-Ordaz et al., 2017",2500 µg/mL
same,activity against biofilms,[1],inhibit formation or to eradicate biofilms
same,mechanism of action against L. monocytogenes,[10],penetration or accumulation in the bacterial membrane of undissociated form
same,MIC against S. aureus,"[5]; ref Skroza et al., 2019",420 µg/mL
same,cell morphology,[11],observation of mid-division cells
same,membrane permeabilization,[11],membrane permeabilization
same,MIC against Escherichia coli,[6]; 24 h 37°C,3400 µg/mL
same,MIC against E. coli,[6]; [14],100 µg/mL
C[C@@H]1O[C@@H](OC[C@H]2O[C@@H](Oc3c(-c4ccc(O)c(O)c4)oc4cc(O)cc(O)c4c3=O)[C@H](O)[C@@H](O)[C@@H]2O)[C@H](O)[C@H](O)[C@H]1O [Rutin],MIC against P. aeruginosa,[8]; ref Adamczak et al.,500 µg/mL
same,MIC against S. aureus,"[5]; ref Adamczak et al., 2020",1000 µg/mL
same,concentration totally inhibiting growth of S. aureus,[12],"– for concentrations above 0.23% (w/v), each phenolic totally inhibited the growth of S. aureus inoculated in chicken soup at 4 °C within 3 days"
same,MIC against E. coli,"[6]; ref Adamczak et al., 2020",500 µg/mL
same,MIC against Enterococcus faecalis,[9],1000 µg/mL
O=C(O)c1ccccc1O [Salicylic acid],MIC against Bacillus cereus,[2],170 µg/mL
same,MIC against Salmonella Infantis,[3],170 µg/mL
same,MIC against P. aeruginosa,[8]; ref Adamczak et al.,500 µg/mL
same,MIC against S. aureus,"[5]; ref Adamczak et al., 2020",250 to 500 µg/mL
same,MIC against S. aureus,"[5]; ref Skroza et al., 2019",350 µg/mL
same,MIC against E. coli,"[6]; ref Adamczak et al., 2020",250 to 500 µg/mL
same,MIC against E. coli,[6]; [14],170 µg/mL
same,MIC against Enterococcus faecalis,[9],500 µg/mL
O=C(/C=C/c1ccc(O)c(O)c1)O[C@H](Cc1ccc(O)c(O)c1)C(=O)O [Rosmarinic acid],MIC against Bacillus cereus,[2],S. aureus 0.45 g·L^−1 B. cereus 0.45 g·L^−1 E. coli 0.45 g·L^−1 S. Infantis 0.45 g·L^−1
same,MIC against Salmonella Infantis,[3],S. aureus 0.45 g·L^−1 B. cereus 0.45 g·L^−1 E. coli 0.45 g·L^−1 S. Infantis 0.45 g·L^−1
same,MIC against P. aeruginosa,[8]; ref Adamczak et al.,500 to 1000 µg/mL
same,MIC against S. aureus,"[5]; ref Skroza et al., 2019",S. aureus 0.45 g·L^−1 B. cereus 0.45 g·L^−1 E. coli 0.45 g·L^−1 S. Infantis 0.45 g·L^−1
same,MIC against E. coli,"[6]; ref Adamczak et al., 2020",500 µg/mL
same,MIC against E. coli,[6]; [14],S. aureus 0.45 g·L^−1 B. cereus 0.45 g·L^−1 E. coli 0.45 g·L^−1 S. Infantis 0.45 g·L^−1
same,MIC against Enterococcus faecalis,[9],1000 µg/mL
O=c1cc(-c2ccc(O)c(O)c2)oc2c([C@@H]3O[C@H](CO)[C@@H](O)[C@H](O)[C@H]3O)c(O)cc(O)c12 [Orientin],MIC against P. aeruginosa,[8]; ref Adamczak et al.,500 µg/mL
same,MIC against S. aureus,"[5]; ref Adamczak et al., 2020",500 µg/mL
same,MIC against E. coli,"[6]; ref Adamczak et al., 2020",500 µg/mL
same,MIC against Enterococcus faecalis,[9],1000 µg/mL
O=c1ccc2ccc(O)c(O)c2o1 [daphnetin],length of bacteria,[13],increase in length of bacteria
O=c1cc(-c2ccc(O)cc2)oc2c([C@@H]3O[C@H](CO)[C@@H](O)[C@H](O)[C@H]3O)c(O)cc(O)c12 [Vitexin],MIC against P. aeruginosa,[8]; ref Adamczak et al.,500 µg/mL
same,MIC against E. coli,"[6]; ref Adamczak et al., 2020",500 µg/mL
same,MIC against Enterococcus faecalis,[9],1000 µg/mL
O=c1cc(-c2ccc(O)cc2)oc2cc(O)cc(O)c12 [Apigenin],MIC against P. aeruginosa,[8]; ref Adamczak et al.,500 µg/mL
same,MIC against S. aureus,"[5]; ref Adamczak et al., 2020",500 to 1000 µg/mL
same,MIC against E. coli,"[6]; ref Adamczak et al., 2020",500 µg/mL
same,MIC against Enterococcus faecalis,[9],1000 µg/mL
"COC1=CC(=O)C=C(OC)C1=O [2,6-dimethoxy-1,4-benzoquinone]",MIC against B. cereus,"[2]; ref Kim et al., 2010",64 µg/mL
same,MIC against S. typhimurium,"[4]; ref Kim et al., 2010",32 µg/mL
same,MIC against S. aureus,"[5]; ref Kim et al., 2010",8 µg/mL
same,MIC against E. coli,"[6]; ref Kim et al., 2010",32 µg/mL
O=c1cc(-c2ccc(O)cc2)oc2cc(O)c([C@@H]3O[C@H](CO)[C@@H](O)[C@H](O)[C@H]3O)c(O)c12 [isovitexin],MIC against P. aeruginosa,[8]; ref Adamczak et al.,500 µg/mL
same,MIC against E. coli,"[6]; ref Adamczak et al., 2020",500 µg/mL
same,MIC against Enterococcus faecalis,[9],1000 µg/mL
